Source: patent US11028087B2, “2,6-disubstituted-9-cyclopentyl-9H-purines, use thereof as medicaments, and pharmaceutical compositions” (UNIVERZITA PALACKEHO V OLOMOUCI, priority 2017, dated 2021)

Assays:
Assay in all cases: Kinase inhibition assay with [γ-33P]ATP
Format in all cases: biochemical
CDK2/Cyclin E = molecular target: T1, CDK2/Cyclin E (Homo sapiens, UniProt P24941); details: histone H1, 15 μM ATP; read-out: IC50 values (μM) CDK2
T1 construct: made in house; host or cells: Sf9 insect cells, baculoviral infection
How it was run: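 Human CDK2/Cyclin E, expressed in baculovirus-infected Sf9 insect cells and purified on a NiNTA column, was assayed with 1 mg/mL histone H1 substrate, 15 μM ATP plus 0.05 μCi [γ-33P]ATP and test compound in 10 μL of buffer (60 mM HEPES-NaOH pH 7.5, 3 mM MgCl2, 3 mM MnCl2, 3 μM Na-orthovanadate, 1.2 mM DTT, PEG20,000). Reactions were quenched with 5 μL 3% H3PO4, spotted onto P-81 phosphocellulose, washed and dried.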

FLT3 D835 = molecular target: T2, FLT3 D835 (Homo sapiens, UniProt P36888); details: AGLT substrate, 1 μM ATP
T2 sequence (P36888 1-993 D835Y): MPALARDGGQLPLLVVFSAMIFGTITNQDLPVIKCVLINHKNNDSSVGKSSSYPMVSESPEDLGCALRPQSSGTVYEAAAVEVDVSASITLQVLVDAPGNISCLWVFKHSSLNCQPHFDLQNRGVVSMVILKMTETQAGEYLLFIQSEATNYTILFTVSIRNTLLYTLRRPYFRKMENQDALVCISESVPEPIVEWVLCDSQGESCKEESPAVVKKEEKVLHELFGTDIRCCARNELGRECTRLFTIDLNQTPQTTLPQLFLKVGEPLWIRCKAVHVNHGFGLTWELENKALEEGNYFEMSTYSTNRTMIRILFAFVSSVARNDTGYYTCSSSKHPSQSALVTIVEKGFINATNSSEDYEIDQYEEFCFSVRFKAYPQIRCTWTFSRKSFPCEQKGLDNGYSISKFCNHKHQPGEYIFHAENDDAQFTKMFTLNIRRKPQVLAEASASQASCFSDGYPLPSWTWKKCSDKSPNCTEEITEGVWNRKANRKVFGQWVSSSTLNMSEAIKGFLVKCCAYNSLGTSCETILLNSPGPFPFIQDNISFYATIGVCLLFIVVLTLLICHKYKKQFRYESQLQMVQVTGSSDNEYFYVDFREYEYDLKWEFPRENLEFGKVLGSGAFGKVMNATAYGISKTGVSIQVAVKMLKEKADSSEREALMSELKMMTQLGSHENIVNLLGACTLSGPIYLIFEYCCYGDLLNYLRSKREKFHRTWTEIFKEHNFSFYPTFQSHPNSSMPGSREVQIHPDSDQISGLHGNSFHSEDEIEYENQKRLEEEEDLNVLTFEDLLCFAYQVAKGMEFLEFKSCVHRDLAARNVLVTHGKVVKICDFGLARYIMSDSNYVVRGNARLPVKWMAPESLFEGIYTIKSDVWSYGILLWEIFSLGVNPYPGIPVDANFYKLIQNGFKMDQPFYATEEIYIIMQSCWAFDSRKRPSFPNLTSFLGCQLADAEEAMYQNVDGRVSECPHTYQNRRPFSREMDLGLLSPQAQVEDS

FLT3 WT = molecular target: T3, FLT3 WT (Homo sapiens, UniProt P36888); details: AGLT substrate, 1 μM ATP
T3 construct: purchased ProQinase GmbH
T3 sequence (P36888 27-993): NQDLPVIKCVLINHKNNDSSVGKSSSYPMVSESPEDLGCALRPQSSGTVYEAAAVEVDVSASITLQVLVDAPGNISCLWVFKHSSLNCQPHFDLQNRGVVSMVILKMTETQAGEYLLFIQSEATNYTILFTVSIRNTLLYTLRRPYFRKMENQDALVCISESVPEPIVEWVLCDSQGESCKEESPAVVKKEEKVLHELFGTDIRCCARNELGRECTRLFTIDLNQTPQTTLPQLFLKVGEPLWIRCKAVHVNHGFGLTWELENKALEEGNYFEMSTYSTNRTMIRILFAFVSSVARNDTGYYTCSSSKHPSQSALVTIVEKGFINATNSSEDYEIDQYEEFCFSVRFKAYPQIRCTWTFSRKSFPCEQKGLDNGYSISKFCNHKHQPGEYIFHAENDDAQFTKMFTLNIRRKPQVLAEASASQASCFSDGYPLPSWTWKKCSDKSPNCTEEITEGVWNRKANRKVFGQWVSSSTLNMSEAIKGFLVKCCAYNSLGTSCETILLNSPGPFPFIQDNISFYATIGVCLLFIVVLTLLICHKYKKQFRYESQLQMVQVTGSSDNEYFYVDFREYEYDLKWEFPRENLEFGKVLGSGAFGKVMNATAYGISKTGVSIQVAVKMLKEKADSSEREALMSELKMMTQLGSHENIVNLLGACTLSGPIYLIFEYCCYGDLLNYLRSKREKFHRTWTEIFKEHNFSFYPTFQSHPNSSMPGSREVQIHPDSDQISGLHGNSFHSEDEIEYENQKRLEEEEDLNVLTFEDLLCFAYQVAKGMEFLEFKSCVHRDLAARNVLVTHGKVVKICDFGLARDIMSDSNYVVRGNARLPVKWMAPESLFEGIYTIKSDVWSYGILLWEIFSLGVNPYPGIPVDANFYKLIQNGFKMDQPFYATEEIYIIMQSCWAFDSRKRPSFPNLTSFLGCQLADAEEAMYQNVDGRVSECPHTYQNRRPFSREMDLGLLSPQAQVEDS
How it was run: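 Radiometric [γ-33P]ATP assay in HEPES pH 7.5 with Mg2+/Mn2+: CDK1/Cyclin B (Sf9-expressed) and purchased CDK5/p35 with 1 mg/mL histone H1 at 15 and 0.15 μM ATP respectively; FLT3 WT and FLT3-ITD with AGLT substrate at 1 μM ATP. Reactions stopped with H3PO4, spotted onto phosphocellulose and washed.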

| Compound | IC50 (CDK2/Cyclin E) [µM] | IC50 (FLT3 D835) [µM] | IC50 (FLT3 WT) [µM] |
| --- | --- | --- | --- |
| NC1CCC(Nc2nc(Nc3ccc(N4CCOCC4)cc3)c3ncn(C4CCCC4)c3n2)CC1 (centres unmarked) [Compound 1] | 0.017 | 0.007 | 0.023 |
| NC1CCC(Nc2nc(Nc3ccc(CN4CCNCC4)cc3)c3ncn(C4CCCC4)c3n2)CC1 (centres unmarked) [Compound 2] | 0.008 | 0.003 | 0.015 |
| CN1CCN(C(=O)c2ccc(Nc3nc(NC4CCC(N)CC4)nc4c3ncn4C3CCCC3)cc2)CC1 (centres unmarked) [Compound 3] | 0.004 | 0.003 | 0.021 |
| CN1CC2(C1)CN(c1ccc(Nc3nc(NC4CCC(O)CC4)nc4c3ncn4C3CCCC3)cc1)C2 (centres unmarked) [Compound 7] | 0.006 | 0.011 | 0.026 |
| NCCNc1nc(Nc2ccc(CN3CCNCC3)cc2)c2ncn(C3CCCC3)c2n1 [Compound 14] | 0.004 | 0.01 | 0.014 |
| CN1CCN(C(=O)c2ccc(Nc3nc(NCCCCN)nc4c3ncn4C3CCCC3)cc2)CC1 [Compound 27] | 0.002 | 0.011 | 0.019 |
| NCCCCNc1nc(Nc2ccc(N3CC4(COC4)C3)nc2)c2ncn(C3CCCC3)c2n1 [Compound 28] | 0.028 | 0.002 | 0.01 |
| CN(C)CCNc1nc(Nc2ccc(CN3CCOCC3)nc2)c2ncn(C3CCCC3)c2n1 [Compound 172] | 0.016 | 0.005 | 0.011 |
| CN(C)CCCNc1nc(Nc2ccc(C(=O)N3CCOCC3)nc2)c2ncn(C3CCCC3)c2n1 [Compound 179] | 0.04 | 0.023 | 0.09 |
| NC1CCC(Nc2nc(Nc3ccc(N4CCCC4)cc3)c3ncn(C4CCCC4)c3n2)CC1 (centres unmarked) [Compound 263] | 0.031 | 0.011 | 0.021 |
| NC1CCC(Nc2nc(Nc3ccc(CN4CCOCC4)cc3)c3ncn(C4CCCC4)c3n2)CC1 (centres unmarked) [Compound 264] | 0.007 | 0.009 | 0.013 |
| NCCCCNc1nc(Nc2ccc(N3CCOCC3)cc2)c2ncn(C3CCCC3)c2n1 [Compound 265] | 0.642 | 0.007 | 0.023 |
| CCN1CCN(c2ccc(Nc3nc(NCCCCN)nc4c3ncn4C3CCCC3)cc2)CC1 [Compound 266] | 0.586 | 0.003 | 0.013 |
| NCCCCNc1nc(Nc2ccc(CN3CCOCC3)cc2)c2ncn(C3CCCC3)c2n1 [Compound 270] | 0.625 | 0.005 | 0.006 |
| NC1CCC(Nc2nc(Nc3ccc(N4CC5(COC5)C4)cc3)c3ncn(C4CCCC4)c3n2)CC1 (centres unmarked) [Compound 272] | 0.025 |  | 0.013 |
